Experimental data taken from patent US20260078130A1, “NAMPT MODULATORS, PREPARATIONS, AND USES THEREOF” (SIRONAX LTD., priority 2022, published 2026).

What was measured:
[1] = molecular target: T1, human enzyme NAMPT (full length) (Homo sapiens, UniProt P43490); assay: NMN fluorescence biochemical assay (stimulation of NMN synthesis by NAMPT); conditions: for EC50: NMN synthesis by purified human NAMPT (100 nM), concentration giving half-maximal activation, read-out: Enzymatic EC50; for Enzymatic Emax: fold change of maximal activation compared to DMSO
T1 construct: human enzyme NAMPT (full length)
T1 sequence (P43490 whole entry): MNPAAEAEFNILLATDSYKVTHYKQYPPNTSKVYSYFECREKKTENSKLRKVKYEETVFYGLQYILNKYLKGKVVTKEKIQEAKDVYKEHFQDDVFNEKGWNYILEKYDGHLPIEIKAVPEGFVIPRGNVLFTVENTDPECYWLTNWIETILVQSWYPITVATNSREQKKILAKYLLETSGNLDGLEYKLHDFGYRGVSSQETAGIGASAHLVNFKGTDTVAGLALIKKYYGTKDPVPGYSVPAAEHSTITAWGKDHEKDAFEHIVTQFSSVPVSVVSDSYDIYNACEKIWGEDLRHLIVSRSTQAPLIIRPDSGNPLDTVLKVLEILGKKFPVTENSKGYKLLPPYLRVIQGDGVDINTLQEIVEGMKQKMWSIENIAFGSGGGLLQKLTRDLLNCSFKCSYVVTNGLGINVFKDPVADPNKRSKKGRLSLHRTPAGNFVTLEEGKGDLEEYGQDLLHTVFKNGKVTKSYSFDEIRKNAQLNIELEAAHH
Outline: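 Full-length human NAMPT (100 nM) was preincubated 15 min at 37 °C with compound in 50 mM Tris-HCl pH 7.5, 10 mM MgCl2, 2 mM DTT, then reacted 1 h at 37 °C with 50 μM NAM, 100 μM PRPP, 4 mM ATP (stated solution concentrations). NMN was derivatised with acetophenone/KOH then formic acid and read at Ex/Em 382/445 nm; EC50 and Emax (fold over DMSO) reported.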

[2] = tested on: endogenous NAMPT in U2OS cells; assay: Cellular NAD+ modulation assay (NAD/NADH-Glo, U2OS cells); assay type: cell-based; conditions: Homo sapiens, 24 hours incubation with compound; for maximal fold induction: read-out: Cellular Emax
Outline: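 Endogenous NAMPT stimulation in U2OS cells treated with compound dilution series for 24 h at 37 °C. Cells lysed with DTAB base, acid-treated 15 min at 60 °C, neutralized, NAD+ read by NAD/NADH-Glo luminescence after 40 min at room temperature. EC50 and Emax (fold over DMSO) derived.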

Structure (SMILES)	EC50 [1] [nM]	Enzymatic Emax [1]	EC50 [2] [nM]	maximal fold induction [2]
Cc1c(C#N)cccc1CC1c2ccccc2C(=O)N1Cc1ccc2[nH]c(=O)oc2c1 (centres unmarked) [Compound 174, 2-methyl-3-((3-oxo-2-((2-oxo-2,3-dihydrobenzo[d]oxazol-6-yl)methyl)isoindolin-1-yl)methyl)benzonitrile]	< 500	B (3≥B>2)	500 to 5000	> 1.5
O=C1c2ccccc2C(Cc2cnccc2Cl)N1Cc1ccc2[nH]c(=O)oc2c1 (centres unmarked) [Compound 175, 6-((1-((4-chloropyridin-3-yl)methyl)-3-oxoisoindolin-2-yl)methyl)benzo[d]oxazol-2(3H)-one]	< 500	B (3≥B>2)	< 500	> 1.5
Cc1cccnc1CC1c2ccccc2C(=O)N1Cc1ccc2[nH]c(=O)oc2c1 (centres unmarked) [Compound 176, 6-((1-((3-methylpyridin-2-yl)methyl)-3-oxoisoindolin-2-yl)methyl)benzo[d]oxazol-2(3H)-one]	< 500	A (A>3)	500 to 5000	> 1.5
Cc1cccnc1C[C@H]1c2ccccc2C(=O)N1Cc1ccc2[nH]c(=O)oc2c1 [Compound 178, (S)-6-((1-((3-methylpyridin-2-yl)methyl)-3-oxoisoindolin-2-yl)methyl)benzo[d]oxazol-2(3H)-one]	< 500	A (A>3)	< 500	> 1.5
CCc1cccnc1CC1c2ccccc2C(=O)N1Cc1ccc2[nH]c(=O)oc2c1 (centres unmarked) [Compound 182, 6-((1-((3-ethylpyridin-2-yl)methyl)-3-oxoisoindolin-2-yl)methyl)benzo[d]oxazol-2(3H)-one]	500 to 5000	A (A>3)	500 to 5000	> 1.5
N#Cc1ccccc1CC1c2ccccc2C(=O)N1Cc1ccc2[nH]nnc2c1 (centres unmarked) [Compound 189, 2-((2-((1H-benzo[d][1,2,3]triazol-5-yl)methyl)-3-oxoisoindolin-1-yl)methyl)benzonitrile]	500 to 5000	B (3≥B>2)	500 to 5000	> 1.5
N#Cc1cccc(Cl)c1CC1c2ccccc2C(=O)N1Cc1ccc2[nH]c(=O)oc2c1 (centres unmarked) [Compound 190, 3-chloro-2-((3-oxo-2-((2-oxo-2,3-dihydrobenzo[d]oxazol-6-yl)methyl)isoindolin-1-yl)methyl)benzonitrile]	< 500	B (3≥B>2)	< 500	> 1.5
O=C1c2ccccc2C(Cc2ncccc2C(F)F)N1Cc1ccc2[nH]c(=O)oc2c1 (centres unmarked) [Compound 191, 6-((1-((3-(difluoromethyl)pyridin-2-yl)methyl)-3-oxoisoindolin-2-yl)methyl)benzo[d]oxazol-2(3H)-one]	500 to 5000	A (A>3)	500 to 5000	> 1.5
N#Cc1ccccc1CC1c2ccccc2C(=O)N1Cc1ccc(O)c(F)c1 (centres unmarked) [Compound 195, 2-((2-(3-fluoro-4-hydroxybenzyl)-3-oxoisoindolin-1-yl)methyl)benzonitrile]	< 500	B (3≥B>2)	< 500	1.2 to 1.5
N#Cc1ccccc1CC1c2ccccc2C(=O)N1Cc1cc(F)c(O)c(F)c1 (centres unmarked) [Compound 197, 2-((2-(3,5-difluoro-4-hydroxybenzyl)-3-oxoisoindolin-1-yl)methyl)benzonitrile]	500 to 5000	B (3≥B>2)	500 to 5000	> 1.5
N#Cc1ccc(CC2c3ccccc3C(=O)N2Cc2ccc3[nH]c(=O)oc3c2)c(F)c1 (centres unmarked) [Compound 199, 3-fluoro-4-((3-oxo-2-((2-oxo-2,3-dihydrobenzo[d]oxazol-6-yl)methyl)isoindolin-1-yl)methyl)benzonitrile]	< 500	A (A>3)	< 500	> 1.5
N#Cc1cccc(Br)c1CC1c2ccccc2C(=O)N1Cc1ccc2[nH]c(=O)oc2c1 (centres unmarked) [Compound 200, 3-bromo-2-((3-oxo-2-((2-oxo-2,3-dihydrobenzo[d]oxazol-6-yl)methyl)isoindolin-1-yl)methyl)benzonitrile]	< 500	B (3≥B>2)	< 500	> 1.5
N#Cc1ncccc1CC1c2ccccc2C(=O)N1Cc1ccc2[nH]c(=O)oc2c1 (centres unmarked) [Compound 201, 3-((3-oxo-2-((2-oxo-2,3-dihydrobenzo[d]oxazol-6-yl)methyl)isoindolin-1-yl)methyl) picolinonitrile]	500 to 5000	A (A>3)	< 500	> 1.5
N#Cc1ccc(F)c(CC2c3ccccc3C(=O)N2Cc2ccc3[nH]c(=O)oc3c2)c1 (centres unmarked) [Compound 202, 4-fluoro-3-((3-oxo-2-((2-oxo-2,3-dihydrobenzo[d]oxazol-6-yl)methyl)isoindolin-1-yl)methyl)benzonitrile]	500 to 5000	A (A>3)	< 500	> 1.5
N#Cc1ccncc1CC1c2ccccc2C(=O)N1Cc1ccc2[nH]c(=O)oc2c1 (centres unmarked) [Compound 203, 3-((3-oxo-2-((2-oxo-2,3-dihydrobenzo[d]oxazol-6-yl)methyl)isoindolin-1-yl)methyl) isonicotinonitrile]	500 to 5000	A (A>3)	< 500	> 1.5
O=C1c2ccccc2C(Cc2ncccc2Br)N1Cc1ccc2[nH]c(=O)oc2c1 (centres unmarked) [Compound 205, 6-((1-((3-bromopyridin-2-yl)methyl)-3-oxoisoindolin-2-yl)methyl)benzo[d]oxazol-2(3H)-one]	< 500	A (A>3)	< 500	> 1.5
O=C1c2ccc(C3CC3)cc2C(Cc2ncccc2Br)N1Cc1ccc2[nH]c(=O)oc2c1 (centres unmarked) [Compound 209, 6-((3-((3-bromopyridin-2-yl)methyl)-5-cyclopropyl-1-oxoisoindolin-2-yl)methyl)benzo[d]oxazol-2(3H)-one]	< 500	A (A>3)	< 500	> 1.5
O=C1c2ccccc2C(Cc2ccccc2OC(F)F)N1Cc1ccc2[nH]c(=O)oc2c1 (centres unmarked) [Compound 210, 6-((1-(2-(difluoromethoxy)benzyl)-3-oxoisoindolin-2-yl)methyl)benzo[d]oxazol-2(3H)-one]	500 to 5000	A (A>3)	500 to 5000	> 1.5
O=C1c2ccccc2C(Cc2nccc(F)c2Br)N1Cc1ccc2[nH]c(=O)oc2c1 (centres unmarked) [Compound 211, 6-((1-((3-bromo-4-fluoropyridin-2-yl)methyl)-3-oxoisoindolin-2-yl)methyl)benzo[d]oxazol-2(3H)-one]	< 500	A (A>3)	< 500	> 1.5
N#Cc1nccc(Cl)c1CC1c2ccccc2C(=O)N1Cc1ccc2[nH]c(=O)oc2c1 (centres unmarked) [Compound 212, 4-chloro-3-((3-oxo-2-((2-oxo-2,3-dihydrobenzo[d]oxazol-6-yl)methyl)isoindolin-1-yl)methyl)picolinonitrile]	< 500	A (A>3)	< 500	> 1.5
O=C1c2ccccc2C(Cc2ncccc2F)N1Cc1ccc2[nH]c(=O)oc2c1 (centres unmarked) [Compound 214, 6-((1-((3-fluoropyridin-2-yl)methyl)-3-oxoisoindolin-2-yl)methyl)benzo[d]oxazol-2(3H)-one]	500 to 5000	A (A>3)	< 500	> 1.5
C#Cc1cccnc1CC1c2ccccc2C(=O)N1Cc1ccc2[nH]c(=O)oc2c1 (centres unmarked) [Compound 215, 6-((1-((3-ethynylpyridin-2-yl)methyl)-3-oxoisoindolin-2-yl)methyl)benzo[d]oxazol-2(3H)-one]	500 to 5000	A (A>3)	< 500	> 1.5
Cc1scnc1CC1c2ccccc2C(=O)N1Cc1ccc2[nH]c(=O)oc2c1 (centres unmarked) [Compound 217, 6-((1-((5-methylthiazol-4-yl)methyl)-3-oxoisoindolin-2-yl)methyl)benzo[d]oxazol-2(3H)-one]	500 to 5000	A (A>3)	500 to 5000	> 1.5
N#Cc1ccc(Br)c(CC2c3ccccc3C(=O)N2Cc2ccc3[nH]c(=O)oc3c2)n1 (centres unmarked) [Compound 221, 5-bromo-6-((3-oxo-2-((2-oxo-2,3-dihydrobenzo[d]oxazol-6-yl)methyl)isoindolin-1-yl)methyl)picolinonitrile]	< 500	A (A>3)	< 500	> 1.5
O=C1c2ccccc2C(Cc2ncccc2Br)N1Cc1cc2oc(=O)[nH]c2cc1F (centres unmarked) [Compound 223, 6-((1-((3-bromopyridin-2-yl)methyl)-3-oxoisoindolin-2-yl)methyl)-5-fluorobenzo[d]oxazol-2(3H)-one]	< 500	A (A>3)	500 to 5000	> 1.5
O=C1c2ccccc2C(Cc2ncccc2Br)N1Cc1ccc2[nH]c(=O)oc2c1F (centres unmarked) [Compound 224, 6-((1-((3-bromopyridin-2-yl)methyl)-3-oxoisoindolin-2-yl)methyl)-7-fluorobenzo[d]oxazol-2(3H)-one]	< 500	A (A>3)	500 to 5000	> 1.5
